Laboratory results reported in article PMC6274457, “Characterization of a New Flavone and Tyrosinase Inhibition Constituents from the Twigs of Morus alba L” (Molecules, 2016).

Target: T1, Mushroom tyrosinase (Agaricus bisporus, UniProt C7FF04)
Assay: Mushroom tyrosinase inhibitory assay (spectrophotometric, L-tyrosine substrate)
Type: biochemical
Settings: qualitative statement; comparison with positive control kojic acid where stated
Description: The compounds were firstly dissolved in DMSO at a concentration of 1.0 mg/mL and then diluted to different concentrations with DMSO. […] The reaction mixtures (3.0 mL) were vortexed and the initial absorbance at 492 nm was measured. After incubation for 20 min at 37 °C, the final absorbance at the same wavelength was taken. […] B1 is the absorbance at 492 nm of test sample at 0 min, B2 is the absorbance at 492 nm of test sample at 20 min.

T1 sequence (G1K3P4 entry or part of it): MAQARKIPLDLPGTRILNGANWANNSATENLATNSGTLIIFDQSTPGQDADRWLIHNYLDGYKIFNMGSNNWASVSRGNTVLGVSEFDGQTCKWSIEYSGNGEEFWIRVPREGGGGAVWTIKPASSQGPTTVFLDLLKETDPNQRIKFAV
T1 sequence (C7FF04 1-392): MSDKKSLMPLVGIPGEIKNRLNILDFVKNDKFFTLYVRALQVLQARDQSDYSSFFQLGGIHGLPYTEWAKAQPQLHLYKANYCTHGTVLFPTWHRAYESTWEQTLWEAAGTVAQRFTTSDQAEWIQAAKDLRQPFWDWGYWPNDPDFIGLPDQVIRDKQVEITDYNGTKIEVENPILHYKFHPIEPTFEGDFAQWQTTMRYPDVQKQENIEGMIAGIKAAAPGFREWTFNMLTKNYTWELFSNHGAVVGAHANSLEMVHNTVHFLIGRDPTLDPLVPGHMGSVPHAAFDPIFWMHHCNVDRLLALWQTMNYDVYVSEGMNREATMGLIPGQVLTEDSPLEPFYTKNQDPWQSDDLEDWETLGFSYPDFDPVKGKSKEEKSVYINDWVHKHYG

SMILES | Mushroom tyrosinase inhibitory activity, result in words
Oc1cc(O)cc(/C=C/c2ccc(O)cc2O)c1 [Oxyresveratrol (5), oxyresveratrol] | much stronger
O=C(/C=C/c1ccc(O)cc1O)c1ccc(O)cc1O [2,4,2′,4′-Tetrahydroxychalcone (3), 2,4,2′,4′-Tetrahydroxychalcone] | much stronger

Continued, values first:

Mushroom tyrosinase inhibitory activity, result in words | SMILES
much stronger | O=C1CC(c2ccc(O)cc2O)Oc2cc(O)cc(O)c21 (stereo not shown) [Steppogenin (2), steppogenin]
much stronger | Oc1cc(O)cc(-c2cc3ccc(O)cc3o2)c1 [Moracin M (14), moracin M]
much stronger | CC(C)=CCc1c(O)ccc(C(=O)/C=C/c2ccc(O)cc2O)c1O [Morachalcone A (4), morachalcone A]
weak | C=C(C)C(=O)Cc1c(-c2ccc(O)cc2O)oc2c3c(cc(O)c2c1=O)OC(C)(C)C=C3 [Morusone (1), 2-(2,4-dihydroxyphenyl)-5-hydroxy-8,8-dimethyl-3-(3-methyl-2-oxo-but-3-enyl)-8H-pyrano[2,3-f]chromen-4-one]

Target: T1, Mushroom tyrosinase
Assay: not given
Design: method as in PMID 26616992
Settings: single resorcinol derivatives, weak activity; read-out: Tyrosinase inhibitory activity IC50; cited from earlier work

SMILES | IC50 [µM]
CC(=O)c1ccc(O)cc1O [2,4-dihydroxyacetophenone] | > 200
